Tested on: HLA I surface expression on MCC cell lines
Assay: Flow cytometry for HLA-I surface expression (anti-HLA-ABC, W6/32) in MCC lines at baseline and after interferon or MEK inhibitor treatment
Type: cell-based, human
Experimental: The overlaid black line plot indicates the percentage of tumor cells that stained positive for HLA-I by IHC of the corresponding original tumor (right y-axis).
Representative histogram plots show cells stained with anti-HLA class I or isotype antibodies. The experiment was performed in the MCPyV− line MCC-290 (left) and the MCPyV+ line MCC-301 (right).
Cells were dissociated with Versene and incubated with 5 μL Human TruStain FcX (Fc receptor blocking solution; Biolegend, Dedham, Mass.) per million cells in […] at room temperature for 10 min. Fluorochrome-conjugated antibodies or respective isotype controls were immediately added and incubated for another 30 min at 4° C. Cells were then washed once with PBS and resuspended in PBS containing 4% paraformaldehyde and analyzed on LSR Fortessa cytometers. Additional steps were described for individual experiments as below.

IFN-y: type II interferon, recombinant human, used to treat MCC cells
HLA I surface expression, median fold increase by MFI (IFN-y exposure, the 8 inducible of 11 MCC lines, pan-class I anti-HLA-ABC antibody, median): 5.7 fold | HLA I surface expression, range of fold increase by MFI (IFN-y exposure, the 8 inducible of 11 MCC lines, range): 2.5-12.4 fold | HLA I surface expression response (three lines: MCC-336, -350, -358): not responsive
